# Source: US20230357248A1, “PYRROLOPYRIMIDINE COMPOUND AS BTK INHIBITOR AND USE THEREOF” (MEDSHINE DISCOVERY INC., priority 2019, published 2023)
# How the values were obtained:
# [1] = Pharmacokinetic evaluation in CD-1 mouse (intravenous); assay type: in vivo; settings: male, plasma, IV 0.21 mg/kg
# Protocol: Assay purpose: To assay the pharmacokinetics of the compound in CD-1 mouse (intravenous)
# Pharmacokinetic study of oral and intravenously injected compound 4 and reference example 1 (compound 005-1) in CD-1 mouse
# (§1) Compound 4 and reference example 1 were mixed with the solvent (10% NMP/60% PEG400/30% H2O). The mixture was vortexed and sonicated to prepare a clarified solution of 0.1 mg/mL. 7- to 10-week old CD-1 male mice were selected, and the candidate compound solution was administered intravenously at a dose of 0.21 mg/kg.
# (§2) Whole blood was collected for a certain period of time to prepare the plasma. Drug concentration was analyzed by LC-MS/MS, and pharmacokinetic parameters were calculated by Phoenix WinNonlin software (Pharsight, USA).
# [2] = Plasma protein binding (PPB) assay, H; assay type: in vitro ADME; settings: human, dialysis 4 hr 37° C.
# Protocol: (§3) Assay procedure: 995 μL of blank plasma of various genera were weighed, and 5 μL of assay compound working solution (400 μM) or warfarin working solution (400 μM) was added so that the final concentrations of the assay compound and warfarin in plasma sample were each 2 μM. The samples were mixed thoroughly. The final concentration of DMSO (the organic phase) was 0.5%. 50 μL of the plasma samples of the assay compound and warfarin were pipetted to a sample receiving plate (in triplicate), and the corresponding volume of corresponding blank plasma or buffer was added immediately, so that the final volume in each sample well was 100 μL, wherein the volume ratio of plasma:dialysis buffer was 1:1. 500 μL of stop solution was then added to these samples. These samples were used as T0 samples for determination of recovery and stability. […] All samples were subjected to protein precipitation, and then analyzed by LC/MS/MS. Bound rate and recovery rate of protein were calculated using the following formulae: % Unbound=100*F/T, % Bound=100−% Unbound, % Recovery=100*(F+T)/T0 (wherein F is the peak area ratio of the compound in the dialysate after 4 h of dialysis; T is the peak area ratio of the compound in the plasma after 4 h of dialysis; To is the peak area ratio of the compound in the plasma sample at time zero).
# [3] = Assay of kinetic solubility; assay type: physicochemical; settings: buffer solution, aqueous buffer, kinetic from dmso stock, pH 6.5 in table head (method says pH 7.4), 24 hours room temperature, theoretical maximum 200 μM
# Protocol: The assay compound was dissolved in DMSO to prepare 10 mmol/L stock solution. 980 μL of dissolution medium was added to a 2 mL glass vial with a screw cap using a pipette (Eppendorf Research Company). […] The final concentrations of the assay compound and DMSO solution were 200 μM and 2%, respectively. The vias were capped. The theoretical maximum concentration was 200 μM. The mixture was shaken at 880 rpm at room temperature for 24 hours. The vials were centrifuged at 13,000 rpm for 30 minutes. 200 μL of supernatant was added to a 96-well plate using a digital pipette.
# [4] = Pharmacokinetic evaluation in SD rat (intravenous); assay type: in vivo; settings: about 0.5 mg/kg
# Protocol: Assay purpose: To assay the pharmacokinetics of the compound in SD rat (intravenous)
# Pharmacokinetic study of oral and intravenously injected compound 4 and reference example 1 in SD rat.
# Compound 4 and reference example 1 were mixed with the solvent (10% NMP/60% PEG400/30% H2O). The mixture was vortexed and sonicated to prepare a clarified solution of 0.5 mg/mL. […] Whole blood was collected for a certain period of time to prepare the plasma. Drug concentration was analyzed by LC-MS/MS, and pharmacokinetic parameters were calculated by Phoenix WinNonlin software (Pharsight, USA).
# [5] = Plasma protein binding (PPB) assay, D; assay type: in vitro ADME; settings: dog, dialysis 4 hr 37° C.
# Protocol: as §3
# [6] = biological target: BTK^C481S (Homo sapiens (Human), UniProt Q06187, C481S); assay: BTK enzyme activity assay; assay type: biochemical; settings: 200 μM ATP; 33P-ATP, filter-binding method
# Protocol: The specific assay process of BTK enzyme activity assay is as follows: Buffer: 20 mM 2-[4-(2-hydroxyethyl)-1-piperazinyl]ethanesulfonic acid (Hepes) (pH 7.5), 10 mM magnesium chloride, 1 mM ethylenebis(oxyethylenenitrilo)tetraacetic acid (EGTA), 0.02% polyoxyethylene dodecyl ether (Brij35), 0.02 mg/mL BSA, 0.1 mM sodium vanadate (Na3VO4), 2 mM dithiothreitol (DTT), 1% DMSO, 200 μM adenosine triphosphate (ATP). • 1. The substrate was prepared in freshly prepared reaction buffer; • 2. The required cofactor was added to the above-mentioned substrate solution; • 3. The kinase BTK^C481S was added to the above-mentioned substrate solution and mixed well; • 4. The compound dissolved in DMSO was added to the kinase reaction mixture by Echo550 (Acoustic technology; nanoliter range), and the mixture was incubated at room temperature for 20 minutes; • 5. ^33P-ATP (specific radioactivity of 10 μCi/μL) was added to the reaction mixture to initiate the reaction; • 6. The mixture was incubated at room temperature for 2 hours; • 7. The radioactivity was detected by filter-binding method; • 8. Kinase activity data represented the percentage of remaining kinase activity in the assay sample compared to the vehicle (dimethyl sulfoxide) reaction.
# [7] = Pharmacokinetic evaluation in CD-1 mouse (oral); assay type: in vivo; settings: 3.1 mg/kg
# Protocol: Assay purpose: To assay the pharmacokinetics of the compound in CD-1 mouse (oral)
# Pharmacokinetic study of oral and intravenously injected compound 4 and reference example 1 (compound 005-1) in CD-1 mouse.
# as §1, with “example 1 (compound 005-1) were mixed” for “example 1 were mixed”, “solution of 0.6 mg/mL. 7-” for “solution of 0.1 mg/mL. 7-”, “dose of 3.1 mg/kg.” for “dose of 0.21 mg/kg.”
# as §2
# [8] = AUCu = AUC0-inf * Unbound PPB (Mouse)
# Chain of BTK^C481S (Q06187 whole entry C481S): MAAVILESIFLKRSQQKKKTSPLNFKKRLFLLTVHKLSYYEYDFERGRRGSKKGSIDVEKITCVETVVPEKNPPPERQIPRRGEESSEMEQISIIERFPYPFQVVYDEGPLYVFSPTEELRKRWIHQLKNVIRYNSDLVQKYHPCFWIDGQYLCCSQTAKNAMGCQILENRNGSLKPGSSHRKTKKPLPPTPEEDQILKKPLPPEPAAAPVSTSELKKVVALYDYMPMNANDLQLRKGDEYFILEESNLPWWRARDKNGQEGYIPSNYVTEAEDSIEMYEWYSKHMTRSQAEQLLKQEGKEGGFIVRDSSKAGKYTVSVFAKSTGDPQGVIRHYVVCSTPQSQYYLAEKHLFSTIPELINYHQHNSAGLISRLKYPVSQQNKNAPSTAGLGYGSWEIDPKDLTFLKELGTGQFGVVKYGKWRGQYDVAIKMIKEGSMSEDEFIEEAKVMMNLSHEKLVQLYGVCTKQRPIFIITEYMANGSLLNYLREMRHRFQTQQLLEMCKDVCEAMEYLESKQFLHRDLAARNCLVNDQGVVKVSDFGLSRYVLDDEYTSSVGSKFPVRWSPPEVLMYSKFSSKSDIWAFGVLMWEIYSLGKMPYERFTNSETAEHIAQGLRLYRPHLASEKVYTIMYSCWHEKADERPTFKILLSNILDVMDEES
compound,measurement,setting,value
CO[C@@H]1C[C@@H](CO)OC[C@@H]1Nc1ncnc2[nH]cc(C(=O)c3ccc(Oc4ccccc4)cc3Cl)c12 [Compound 4],AUC(0-inf),[1],3110 nM·h
same,C0,[1],0.562 µM
same,Vd,[1],0.85 L/kg
same,clearance,[1],0.127 L/h/kg
same,half-life,[1],4.65 h
same,AUC,[1]; [8],12.4 nM·h
same,"fraction unbound at 4 h, 2 μM",[2],0.004
same,solubility at 24 h,[3],1.1 µM
same,AUCu,[4]; AUCu = AUC0-inf * Unbound PPB (in vivo assay of PPB in rat),3.4 nM·h
same,AUC(0-inf),"[4]; male, plasma",1700 nM·h
same,C0,"[4]; male, plasma",0.852 µM
same,Vd,"[4]; male, plasma",1.42 L/kg
same,clearance,"[4]; male, plasma",0.588 L/h/kg
same,half-life,"[4]; male, plasma",1.82 h
same,"fraction unbound at 4 h, 2 μM",[5],0.001
same,IC50,[6],7.3 nM
same,AUCu,[7]; [8],133.0 nM·h
same,AUC(0-inf),"[7]; male, plasma",33200 nM·h
same,Cmax,"[7]; male, plasma",2.98 µM
same,bioavailability,"[7]; male, plasma",71.7%
same,half-life,"[7]; male, plasma",3.73 h
